The values that follow come from patent US6287794A, “Factor Vlla inhibitors” (Aventis Pharma Deutschland GmbH, priority 1998, dated 2001).

The term Ki denotes the equilibrium dissociation constant of an inhibitor or competing ligand from its target.

For the test, the target named is T1, human factor VIIa and TF (Homo sapiens, UniProt P08709).
T1 construct: human factor VIIa and TF
Put plainly: Determination of Ki for FVIIa inhibition (chromogenic assay, substrate S-2288). Type of test: biochemical. To be noted: human factor VIIa 5 nM and TF 10 nM, S-2288 500 μM, 25° C., 15 minute preincubation, pH 8.15; read-out: Factor VIIa inhibitory activities Ki. As for the experimental part:
The inhibitory activity (Ki) of each compound towards […] activity was determined using a chromogenic assay essentially as described previously. J. A. Ostrem, F. Al-Obeidi, P. Safar, A. Safarova, S. K. Stringer, M. Patek, M. T. Cross, J. Spoonamore, J. C. LoCascio, P. Kasireddy, D. S. Thorpe, N. Sepetov, M. Lebi, P. Wildgoose, P. Strop, "Discovery of a novel, potent, and specific family of factor Xa inhibitors via combinatorial chemistry". Biochemistry 37 (1998) 1053-1059. Kinetic assays were conducted at 25° C. in half-area microtiter plates (Costar Corp., Cambridge, Mass.) using a kinetic plate reader (Molecular Devices Spectramax 250). A typical assay consisted of 25 μl of human factor VIIa and TF (5 nM and 10 nM, respective final concentration) combined with 40 μl of inhibitor dilutions in 10% DMSO/TBS-PEG buffer (50 mM Tris, 15 mM NaCl, 5 mM CaCl2; 0.05% PEG 8k, pH 8.15). Following a 15 minute preincubation period, the assay was initiated by the addition of 35 μl of the chromogenic substrate S-2288 (D-Ile-Pro-Arg-pNA, Pharmacia Hepar Inc, 500 μM final concentration.). The apparent inhibition constants were calculated from the slope of the progress curves during the linear part of the time course, typically between 1 and 5 min following addition of substrate to the assay. The true Ki was subsequently determined for each compound by correcting for substrate concentration (S) and the Km using the formula Ki=Ki app/(1+(S)/Km). I. H. Segal, Enzyme Kinetics, pp 100-125 (John Wiley & Sons, N.Y., 1975).

Starred links: 1 amine or outer side, 2 acyl side, 3 side chain; linkers in the order of their positions; H or OH if unused. Non-standard residues stand in square brackets, D forms with d. Residues, ends and D or L forms follow the SMILES beside them. *: point of attachment. Phe(4-guanidino) = N=C(N)Nc1ccc(C[C@H](N)C(=O)O)cc1; Phe(4-amidino) = N=C(N)c1ccc(C[C@H](N)C(=O)O)cc1; d(hArg) = N=C(N)NCCCC[C@@H](N)C(=O)O; Abu(4-CN) = N#CCC[C@H](N)C(=O)O; Cha = N[C@@H](CC1CCCCC1)C(=O)O; Chg = N[C@H](C(=O)O)C1CCCCC1; Dab = NCC[C@H](N)C(=O)O; CO = O=C([*:1])[*:2]; Alloc = C=CCOC(=O)*; NHAllyl = C=CCN*; Acm = CC(=O)NC*

T1 sequence (P08709 213-466 limits assumed): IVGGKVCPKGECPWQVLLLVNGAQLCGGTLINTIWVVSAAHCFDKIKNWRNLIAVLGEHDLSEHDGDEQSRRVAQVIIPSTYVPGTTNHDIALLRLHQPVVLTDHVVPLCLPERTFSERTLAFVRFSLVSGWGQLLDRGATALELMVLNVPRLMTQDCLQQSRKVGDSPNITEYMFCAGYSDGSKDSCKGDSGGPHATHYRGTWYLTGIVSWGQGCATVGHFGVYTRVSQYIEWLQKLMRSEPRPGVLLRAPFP
T1 sequence (P08709 61-212 limits assumed): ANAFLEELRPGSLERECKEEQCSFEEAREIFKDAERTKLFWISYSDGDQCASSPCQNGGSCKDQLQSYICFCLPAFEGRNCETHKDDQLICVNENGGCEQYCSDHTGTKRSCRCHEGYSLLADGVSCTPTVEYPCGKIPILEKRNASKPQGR
T1 sequence (P13726 33-295 partner): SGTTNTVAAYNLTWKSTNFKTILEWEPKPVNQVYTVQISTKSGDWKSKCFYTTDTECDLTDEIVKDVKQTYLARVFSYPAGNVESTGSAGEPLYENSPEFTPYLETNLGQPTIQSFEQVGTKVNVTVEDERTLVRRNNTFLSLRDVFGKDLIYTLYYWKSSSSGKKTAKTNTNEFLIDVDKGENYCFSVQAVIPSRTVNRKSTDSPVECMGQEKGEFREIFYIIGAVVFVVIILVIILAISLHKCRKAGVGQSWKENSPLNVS

Take `C=CCOC(=O)N[C@@H](Cc1ccc(C(=N)N)cc1)C(=O)N[C@@H](CCC(=O)O)C(=O)N[C@@H](CC(N)=O)C(=O)NCc1ccc(N(C)C)cc1` [Alloc--pAph--Glu--Asn-4-dimethylaminobenzylamide]: the Ki came to 110 nM.

`C=CCOC(=O)N[C@@H](Cc1ccc(C(=N)N)cc1)C(=O)N[C@@H](CCC(=O)O)C(=O)N[C@@H](CCCNC(=N)N)C(=O)N[C@@H](CC1CCCCC1)C(N)=O` [Alloc--pAph--Glu--Arg--Cha--NH2, Alloc-pAph-Glu-Arg-Cha-NH2] (Alloc-[Phe(4-amidino)]ER[Cha]-NH2): the Ki worked out at 46 nM.

Regarding `C=CCOC(=O)N[C@@H](Cc1ccc(C(=N)N)cc1)C(=O)N[C@@H](CCC(=O)O)C(=O)N[C@@H](CC(N)=O)C(=O)NCCc1ccc2ccccc2c1` [Alloc--pAph--Glu--Asn-2-(2-naphthyl)ethylamide], the Ki was determined as 52 nM.

On to `C=CCOC(=O)N[C@@H](Cc1ccc(C(=N)N)cc1)C(=O)N[C@@H](CCC(=O)O)C(=O)N[C@@H](CC(N)=O)C(=O)NCc1ccc(OC)cc1` [Alloc--pAph--Glu--Asn-4-methoxybenzylamide], for which the Ki is 83 nM.

Turning to `C=CCOC(=O)N[C@@H](Cc1ccc(C(=N)N)cc1)C(=O)N[C@@H](CCC(=O)O)C(=O)N[C@@H](CSCNC(C)=O)C(=O)N[C@@H](CC1CCCCC1)C(N)=O` [Alloc--pAph--Glu--Cys(Acm)--Cha--NH2] (Alloc-[Phe(4-amidino)]EC(Acm)[Cha]-NH2), the Ki was 120 nM.

`C=CCOC(=O)N[C@@H](Cc1ccc(C(=N)N)cc1)C(=O)N[C@@H](CCC(=O)O)C(=O)NCC(=O)N[C@@H](CC1CCCCC1)C(N)=O` [Alloc--pAph--Glu--Gly--Cha--NH2, Alloc-pAph-Glu-Gly-Cha-NH2] (Alloc-[Phe(4-amidino)]EG[Cha]-NH2): the inhibitory constant (Ki) stood at 120 nM.

On to `C=CCOC(=O)N[C@@H](Cc1ccc(C(=N)N)cc1)C(=O)N[C@@H](CCC(=O)O)C(=O)N[C@H](C(=O)NCCC(c1ccccc1)c1ccccc1)[C@@H](C)OCc1ccccc1` [Alloc-pAph-Glu-Thr(Bzl)-NH--CH2 --CH2 --CH(Ph)2], for which the inhibition constant (Ki) is 170 nM.

Take `C=CCOC(=O)N[C@@H](Cc1ccc(C(=N)N)cc1)C(=O)N[C@@H](CCC(=O)O)C(=O)N[C@@H](CSC)C(=O)N[C@@H](CC1CCCCC1)C(N)=O` [Alloc--pAph--Glu--Cys(Me)--Cha--NH2] (Alloc-[Phe(4-amidino)]EC(Me)[Cha]-NH2): the inhibition constant (Ki) was determined as 200 nM.

Consider `C=CCOC(=O)N[C@@H](Cc1ccc(C(=N)N)cc1)C(=O)N[C@@H](CCC(=O)O)C(=O)N[C@@H](CC(N)=O)C(=O)NCC1CCCCC1` [Alloc--pAph--Glu--Asn--NH--CH2 --Chx, Alloc-pAph-Glu-Asn-NH--CH2 -Chx], for which the Ki was found to be 150 nM.

As to `C=CCOC(=O)N[C@@H](Cc1ccc(C(=N)N)cc1)C(=O)N[C@@H](CCC(=O)O)C(=O)N[C@@H](CCCNC(=N)N)C(=O)N[C@H](C(N)=O)C1CCCCC1` [Alloc--pAph--Glu--Arg--Chg--NH2, Alloc-pAph-Glu-Arg-Chg-NH2] (Alloc-[Phe(4-amidino)]ER[Chg]-NH2), the Ki came out at 238 nM.

For `C=CCOC(=O)N[C@@H](Cc1ccc(C(=N)N)cc1)C(=O)N[C@@H](CCC(=O)O)C(=O)N[C@@H](CCC(N)=O)C(N)=O` [Alloc--pAph--Glu--Gln--NH2], the inhibition constant (Ki) was found to be 1500 nM.

In the case of `C=CCOC(=O)N[C@@H](Cc1ccc(C(=N)N)cc1)C(=O)N[C@@H](CCC(=O)O)C(=O)N[C@@H](CC(N)=O)C(=O)NCc1ccc(Cl)c(Cl)c1` [Alloc--pAph--Glu--Asn-3,4-dichlorobenzylamide], the Ki turned out to be 26 nM.

As to `C=CCOC(=O)N[C@@H](Cc1ccc(C(=N)N)cc1)C(=O)N[C@@H](CCC(=O)O)C(=O)N[C@H](CCCCNC(=N)N)C(=O)N[C@@H](CC1CCCCC1)C(N)=O` [Alloc--pAph--Glu--D--Lys[--C(=NH)--NH2]--Cha--NH2] (Alloc-[Phe(4-amidino)]E[d(hArg)][Cha]-NH2), the Ki was determined as 22000 nM.

Consider `C=CCOC(=O)N[C@@H](Cc1ccc(C(=N)N)cc1)C(=O)N[C@@H](CCC(=O)O)C(=O)N[C@@H](CCSC)C(=O)N[C@@H](CC1CCCCC1)C(N)=O` [Alloc--pAph--Glu--Met--Cha--NH2] (Alloc-[Phe(4-amidino)]EM[Cha]-NH2), for which the Ki amounted to 110 nM.

For `C=CCOC(=O)N[C@@H](Cc1ccc(C(=N)N)cc1)C(=O)N[C@@H](CCC(=O)O)C(=O)N[C@@H](Cc1ccc(NC(=N)N)cc1)C(=O)N[C@@H](CC1CCCCC1)C(N)=O` [Alloc-pAph-Glu-Phe(4-guanidino)-Cha-NH2] (Alloc-[Phe(4-amidino)]E[Phe(4-guanidino)][Cha]-NH2), the Ki was 120 nM.

For `C=CCOC(=O)N[C@@H](Cc1ccc(C(=N)N)cc1)C(=O)N[C@@H](CCC(=O)O)C(=O)N[C@@H](CC(N)=O)C(=O)NCC1CCCO1` (stereo partly drawn) [Alloc--pAph--Glu--Asn-2-tetrahydrofuranylmethylamide], the Ki is 170 nM.

Consider `C=CCOC(=O)N[C@@H](Cc1ccc(C(=N)N)cc1)C(=O)N[C@@H](CCC(=O)O)C(=O)N[C@@H](CC(N)=O)C(=O)NCCc1ccccn1` [Alloc--pAph--Glu--Asn-2-(2-pyridyl)ethylamide], for which the Ki amounted to 71 nM.

Take `C=CCOC(=O)N[C@@H](Cc1ccc(C(=N)N)cc1)C(=O)N[C@@H](CCC(=O)O)C(=O)N[C@@H](CNC(=N)N)C(N)=O` [Alloc--pAph--Glu--Dap[--C(=NH)--NH2]--NH2]: the Ki turned out to be 260 nM.

In the case of `C=CCOC(=O)N[C@@H](Cc1ccc(C(=N)N)cc1)C(=O)N[C@@H](CCC(=O)O)C(=O)N[C@@H](CC(N)=O)C(=O)NC(C)c1cccc2ccccc12` (stereo partly drawn) [Alloc--pAph--Glu--Asn-1-(1-naphthyl)ethylamide], the Ki came to 21 nM.

Regarding `C=CCOC(=O)N[C@@H](Cc1ccc(C(=N)N)cc1)C(=O)N[C@@H](CCC(=O)O)C(=O)N[C@@H](CC(N)=O)C(=O)NCCc1cccc(Cl)c1` [Alloc--pAph--Glu--Asn-2-(3-chlorophenyl)ethylamide], the Ki is 23 nM.

For `C=CCOC(=O)N[C@@H](Cc1ccc(C(=N)N)cc1)C(=O)N[C@@H](CCC(=O)O)C(=O)N[C@@H](CCC#N)C(=O)N[C@@H](CC1CCCCC1)C(N)=O` [Alloc--pAph--Glu-2-Abu(4-CN)--Cha--NH2] (Alloc-[Phe(4-amidino)]E[Abu(4-CN)][Cha]-NH2), the Ki was found to be 63 nM.

In the case of `C=CCOC(=O)N[C@@H](Cc1ccc(C(=N)N)cc1)C(=O)N[C@@H](CCC(=O)O)C(=O)N[C@@H](CCN)C(=O)N[C@@H](CC1CCCCC1)C(N)=O` [Alloc--pAph--Glu--Dab--Cha--NH2, Alloc-pAph-Glu-Dab-Cha-NH2] (Alloc-[Phe(4-amidino)]E[Dab][Cha]-NH2), the Ki is 55 nM.

Turning to `C=CCNC(=O)N[C@@H](Cc1ccc(C(=N)N)cc1)C(=O)N[C@@H](CCC(=O)O)C(=O)N[C@@H](CCCNC(=N)N)C(=O)N[C@@H](CC1CCCCC1)C(N)=O` [allyl-NH--C(O)-pAph-Glu-Arg-Cha-NH2] ({NHAllyl-CO}-[Phe(4-amidino)]ER[Cha]-NH2), the Ki came out at 42 nM.

Turning to `C=CCOC(=O)N[C@@H](Cc1ccc(C(=N)N)cc1)C(=O)N[C@@H](CCC(=O)O)C(=O)N[C@@H](CCNC(C)=N)C(=O)N[C@@H](CC1CCCCC1)C(N)=O` [Alloc--pAph--Glu--Dab[--C(=NH)--CH3]--Cha--NH2], the inhibitory constant (Ki) was found to be 190 nM.

Consider `C=CCOC(=O)N[C@@H](Cc1ccc(C(=N)N)cc1)C(=O)N[C@@H](CCC(=O)O)C(=O)N[C@@H](Cc1c[nH]cn1)C(=O)N[C@@H](CC1CCCCC1)C(N)=O` [Alloc--pAph--Glu--His--Cha--NH2] (Alloc-[Phe(4-amidino)]EH[Cha]-NH2), for which the inhibitory constant (Ki) came to 140 nM.

Take `C=CCOC(=O)N[C@@H](Cc1ccc(C(=N)N)cc1)C(=O)N[C@@H](CCC(=O)O)C(=O)N[C@@H](CC(N)=O)C(=O)NCc1ccc2c(c1)OCO2` [Alloc--pAph--Glu--Asn-3,4-methylenedioxybenzylamide]: the Ki is 120 nM.

In the case of `C=CCOC(=O)N[C@@H](Cc1ccc(C(=N)N)cc1)C(=O)N[C@@H](CCC(=O)O)C(=O)N[C@@H](CNC(=N)N)C(=O)N[C@@H](Cc1ccc(C2(c3ccccc3)SCCS2)cc1)C(N)=O` [Alloc--pAph--Glu--Dap[--C(=NH)--NH2]--Phe[4-C(--S--(CH2)2 --S--)--Ph]--NH2], the Ki is 15 nM.

Take `C=CCOC(=O)N[C@@H](Cc1ccc(C(=N)N)cc1)C(=O)N[C@@H](CCC(=O)O)C(=O)N[C@@H](CCCN)C(N)=O` [Alloc--pAph--Glu--Orn--NH2]: the Ki amounted to 6200 nM.

For the compound `C=CCOC(=O)N[C@@H](Cc1ccc(C(=N)N)cc1)C(=O)N[C@@H](CCC(=O)O)C(=O)N[C@@H](CCN)C(=O)NCCc1ccccc1` [Alloc--pAph--Glu--Dab--NH--(CH2)2 --Ph, Alloc-pAph-Glu-Dab-NH--CH2 --CH2 --Ph], the Ki is 380 nM.

For the compound `C=CCOC(=O)N[C@@H](Cc1ccc(C(=N)N)cc1)C(=O)N[C@@H](CCC(=O)O)C(=O)N[C@@H](CC(N)=O)C(=O)N(C)Cc1cccc2ccccc12` [Alloc--pAph--Glu--Asn-N-methyl-N-(1-naphthylmethyl)amide], the Ki was 1700 nM.
